The record followed here is ChEMBL document CHEMBL3779842, “Isopimarane diterpenoids from Kaempferia pulchra rhizomes collected in Myanmar and their Vpr inhibitory activity” (Bioorg Med Chem Lett, 2016).

Structures are written as SMILES. The source made the active and inactive calls. No cut-off for these calls is given here.

Format in all cases: cell-based
Settings in all cases: Human immunodeficiency virus 1

Assay [1] relates to TREx-HeLa-Vpr. As to the kind of experiment: Inhibition of -c-myc-His6 tagged HIV1 NL4-3 Vpr expressed in human TREx-HeLa-Vpr cells assessed as cell viability at 1.56 uM after 48 hrs in presence of tetracycline by WST8 assay.
The subject of assay [2] is TREx-HeLa-Vpr. In words: Inhibition of -c-myc-His6 tagged HIV1 NL4-3 Vpr expressed in human TREx-HeLa-Vpr cells assessed as cell viability at 6.25 uM after 48 hrs in presence of tetracycline by WST8 assay. (In general: Formazan colour is commonly taken as a measure of viable cells.)
Assay [3] relates to TREx-HeLa-Vpr. As to the kind of experiment: Inhibition of -c-myc-His6 tagged HIV1 NL4-3 Vpr expressed in human TREx-HeLa-Vpr cells assessed as cell viability at 3.12 uM after 48 hrs in presence of tetracycline by WST8 assay.
The subject of assay [4] is TREx-HeLa-Vpr. In words: Inhibition of -c-myc-His6 tagged HIV1 NL4-3 Vpr expressed in human TREx-HeLa-Vpr cells assessed as cell viability at 5 uM after 48 hrs in presence of tetracycline by WST8 assay.

With `C=C[C@]1(C)C=C2C[C@@H](O)[C@H]3C(C)(C)CC[C@H](O)[C@]3(C)[C@H]2CC1`, the inhibition result in assay [1], in assay [2] and in assay [3] was “inactive” each time.
As for `C=C[C@]1(C)C=C2[C@@H](O)C[C@H]3C(C)(C)CCC[C@]3(C)[C@@]2(O)CC1`, the inhibition entry in assay [1], in assay [2] and in assay [3] was “inactive” in each case.
In the case of `CCOC(=O)/C=C/c1ccc(OC)cc1`, the inhibition result in assay [1], in assay [2] and in assay [3] was “inactive” in each case.
In the case of `C=C[C@]1(C)C=C2C[C@@H](OC(C)=O)[C@H]3C(C)(C)CCC[C@]3(C)[C@@]2(O)CC1`, the inhibition entry in assay [1], in assay [2] and in assay [3] was “inactive” throughout.
In the case of `C=C[C@]1(C)C=C2CC[C@H]3C(C)(C)CC[C@H](O)[C@]3(C)[C@H]2CC1`, the inhibition result in assay [1], in assay [2] and in assay [3] was “inactive” throughout.
In the case of `C=C[C@@]1(C)CCC2=C(CC[C@H]3C(C)(C)CCC[C@]23C)[C@H]1O`, the Activity in assay [1] turned out to be 116%; in assay [3], 106%. In addition, in assay [2], the Cell viability worked out at 104%.
In the case of `C=C[C@]1(C)C=C2[C@@H](OC(C)=O)[C@@H](O)[C@H]3C(C)(C)CCC[C@]3(C)[C@@]2(O)CC1`, the inhibition result in assay [1], in assay [2] and in assay [3] was “inactive” throughout.
In the case of `C=C[C@@]1(C)CCC2=C(C(=O)C[C@H]3C(C)(C)CCC[C@]23C)[C@H]1O`, the inhibition result in assay [1], in assay [2] and in assay [3] was “inactive” in each case.
Turning to `C=C[C@]1(C)C=C2CC[C@H]3C(C)(C)[C@H](O)C[C@H](O)[C@]3(C)[C@H]2CC1`, the inhibition result in assay [1], in assay [2] and in assay [3] was “inactive” each time.
On to `C=C[C@@]1(C)C=C2CC[C@@H]3C(C)(C)C[C@@H](O)C[C@@]3(C)[C@@H]2CC1`, for which the inhibition result in assay [1], in assay [2] and in assay [3] was “inactive” in each case.
Take `C=C[C@]1(C)C=C2CC[C@H]3C(C)(C)CC[C@H](O)[C@]3(C)[C@H]2[C@H](O)C1`: the inhibition entry in assay [1], in assay [2] and in assay [3] was “inactive” each time.
Consider `C=C[C@]1(C)C=C2C[C@@H](O)[C@H]3C(C)(C)CC[C@H](OC(C)=O)[C@]3(C)[C@H]2CC1`, for which the results for the Activity in assay [1] and in assay [3] were 130% and 116%, respectively. Besides, the Cell viability in assay [2] came to 105%.
Take `C=C[C@@]1(C)CCC2=C(C[C@@H](O)[C@H]3C(C)(C)CC[C@H](O)[C@]23C)[C@@H]1OC`: the inhibition entry in assay [1], in assay [2] and in assay [3] was “inactive” each time.
As for `C=C[C@]1(C)C=C2[C@H](OC(C)=O)[C@@H](O)[C@H]3C(C)(C)CCC[C@]3(C)[C@H]2CC1`, the values for the Activity in assay [1] and in assay [3] were 127% and 114%, respectively. Moreover, the Cell viability in assay [2] amounted to 96%.
Turning to `C=C[C@@]1(C)CCC2=C(C[C@@H](O)[C@H]3C(C)(C)CCC[C@]23C)[C@@H]1O`, the Activity in assay [1] was 180%; in assay [3] it was 170%. Moreover, the Cell viability in assay [2] was determined as 157%.
In the case of `C=C[C@]1(C)C=C2[C@@H](O)[C@@H](O)[C@H]3C(C)(C)CCC[C@]3(C)[C@@]2(O)CC1`, the Activity is 130% in assay [1] and 111% in assay [3]. The Cell viability in assay [2] came out at 96%.
With `C=C[C@]1(C)C=C2CC[C@H]3C(C)(C)C[C@H](O)[C@H](O)[C@]3(C)[C@@]2(O)CC1`, the inhibition result in assay [1], in assay [2] and in assay [3] was “inactive” in each case.
On to `C=C[C@@]1(C)CCC2=C(C[C@@H](O)[C@H]3C(C)(C)CCC[C@]23C)[C@H]1O`, for which the inhibition entry in assay [1], in assay [2] and in assay [3] was “inactive” each time.
`C=C[C@]1(C)C=C2[C@H](OC(C)=O)C[C@H]3C(C)(C)CCC[C@]3(C)[C@@]2(O)CC1`: the inhibition result in assay [1], in assay [2] and in assay [3] was “inactive” in each case.
`C=C[C@@]1(C)CCC2=C(C[C@@H](O)[C@H]3C(C)(C)CCC[C@]23C)[C@H]1OC`: the inhibition entry in assay [1], in assay [2] and in assay [3] was “inactive” each time.
As to `C=C[C@@]1(C)CCC2=C(C[C@@H](O)[C@H]3C(C)(C)CCC[C@]23C)C1=O`, the Activity in assay [1] is 114%; in assay [3] it was 106%. Moreover, the Cell viability in assay [2] was 98%.
For `C=C[C@]1(C)C=C2[C@H](O)C[C@H]3C(C)(C)CCC[C@]3(C)[C@H]2CC1`, the inhibition result in assay [1], in assay [2] and in assay [3] was “inactive” each time.
Take `C=C[C@]1(C)C=C2C(=O)C[C@H]3C(C)(C)CCC[C@]3(C)[C@@]2(O)CC1`: the inhibition entry in assay [1], in assay [2] and in assay [3] was “inactive” in each case.
For the compound `C=C[C@]1(C)C=C2C[C@@H](O)[C@H]3C(C)(C)[C@H](O)C[C@H](O)[C@]3(C)[C@H]2CC1`, the inhibition entry in assay [1], in assay [2] and in assay [3] was “inactive” each time.
Turning to `COc1c(C=O)c(O)cc2c1C(=O)c1ccccc1C2=O`, the Activity in assay [4] was determined as 137%.
Turning to `C=C[C@]1(C)C=C2CC[C@H]3C(C)(C)C[C@H](O)[C@H](O)[C@]3(C)[C@H]2CC1`, the inhibition result in assay [1], in assay [2] and in assay [3] was “inactive” in each case.
In the case of `C=C[C@]1(C)C=C2C(=O)C[C@H]3C(C)(C)CC[C@H](O)[C@]3(C)[C@H]2CC1`, the inhibition result in assay [1], in assay [2] and in assay [3] was “inactive” throughout.
In the case of `C=C[C@@]1(C)CCC2=C(C[C@@H](O)[C@H]3C(C)(C)CCC[C@]23C)[C@@H]1OC`, the Activity amounted to 126% in assay [1] and 119% in assay [3]. The Cell viability in assay [2] turned out to be 114%.
On to `C=C[C@]1(C)C=C2C[C@@H](O)[C@H]3C(C)(C)CCC[C@]3(C)[C@H]2CC1`, for which the inhibition entry in assay [1], in assay [2] and in assay [3] was “inactive” throughout.
`C=C[C@]1(C)C=C2CC[C@H]3C(C)(C)C[C@H](O)[C@H](O)[C@]3(C)[C@H]2[C@H](O)C1`: the inhibition result in assay [1], in assay [2] and in assay [3] was “inactive” in each case.
Consider `C=C[C@@]1(C)CCC2=C(C[C@@H](O)[C@H]3C(C)(C)CC[C@H](O)[C@]23C)[C@H]1O`, for which the inhibition entry in assay [1], in assay [2] and in assay [3] was “inactive” each time.
In the case of `C=C[C@]1(C)C=C2C[C@@H](O)[C@H]3C(C)(C)CCC[C@]3(C)[C@@]2(OC)CC1`, the inhibition result in assay [1], in assay [2] and in assay [3] was “inactive” throughout.
